By inhibition is commonly meant the drop in the measured response relative to a control, in per cent.

Assay in all cases: HotSpot kinase profiling
Common to all, as to format: biochemical

One assay concerns the target T1, MSSK1/STK23 (Homo sapiens, UniProt Q9UPE1).
T1 construct: purchased Reaction Biology Corp
The gist of the method: (§1)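 Radio-isotope P81 filtration format. Substrate + required cofactors in reaction buffer, kinase added, 2 h RT. Stop, wash with 0.1% phosphoric acid, detect. % inhibition vs DMSO; mean of duplicates where repeated.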

The next assay addresses T2, JAK3 (Homo sapiens, UniProt P52333).
T2 construct: purchased Reaction Biology Corp
T2 sequence (P52333 1-1124): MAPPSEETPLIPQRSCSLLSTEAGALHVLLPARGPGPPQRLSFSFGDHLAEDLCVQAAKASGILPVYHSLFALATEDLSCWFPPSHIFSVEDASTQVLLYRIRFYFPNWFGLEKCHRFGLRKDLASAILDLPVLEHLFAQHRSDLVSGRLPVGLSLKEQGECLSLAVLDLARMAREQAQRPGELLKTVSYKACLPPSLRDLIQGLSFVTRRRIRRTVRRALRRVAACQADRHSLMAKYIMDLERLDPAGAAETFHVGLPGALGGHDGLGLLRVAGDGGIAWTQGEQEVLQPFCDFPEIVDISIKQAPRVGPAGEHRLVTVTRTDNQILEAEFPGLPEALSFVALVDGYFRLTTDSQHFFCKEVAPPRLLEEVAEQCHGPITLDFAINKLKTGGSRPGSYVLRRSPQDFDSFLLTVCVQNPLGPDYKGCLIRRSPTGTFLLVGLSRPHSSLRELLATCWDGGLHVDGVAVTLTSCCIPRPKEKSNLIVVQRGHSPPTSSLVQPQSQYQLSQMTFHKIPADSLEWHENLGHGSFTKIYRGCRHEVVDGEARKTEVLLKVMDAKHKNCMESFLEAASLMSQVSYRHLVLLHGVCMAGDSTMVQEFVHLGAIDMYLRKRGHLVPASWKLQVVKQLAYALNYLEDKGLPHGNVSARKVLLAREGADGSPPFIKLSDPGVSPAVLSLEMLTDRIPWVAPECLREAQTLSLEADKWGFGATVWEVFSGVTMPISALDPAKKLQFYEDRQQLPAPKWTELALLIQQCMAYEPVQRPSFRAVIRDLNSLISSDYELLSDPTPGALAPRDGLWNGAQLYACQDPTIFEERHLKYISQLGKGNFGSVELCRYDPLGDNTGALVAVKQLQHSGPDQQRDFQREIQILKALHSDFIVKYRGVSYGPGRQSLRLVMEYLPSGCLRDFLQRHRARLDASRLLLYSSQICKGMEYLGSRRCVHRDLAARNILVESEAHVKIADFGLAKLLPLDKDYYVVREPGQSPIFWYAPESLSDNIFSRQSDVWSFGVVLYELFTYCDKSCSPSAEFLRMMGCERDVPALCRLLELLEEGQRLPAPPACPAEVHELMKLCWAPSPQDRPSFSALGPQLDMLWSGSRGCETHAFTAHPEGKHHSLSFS
In outline:
as §1

For another assay, the target named is T3, TAOK3/JIK (Homo sapiens, UniProt Q9H2K8).
T3 construct: purchased Reaction Biology Corp
T3 sequence (Q9H2K8 1-898): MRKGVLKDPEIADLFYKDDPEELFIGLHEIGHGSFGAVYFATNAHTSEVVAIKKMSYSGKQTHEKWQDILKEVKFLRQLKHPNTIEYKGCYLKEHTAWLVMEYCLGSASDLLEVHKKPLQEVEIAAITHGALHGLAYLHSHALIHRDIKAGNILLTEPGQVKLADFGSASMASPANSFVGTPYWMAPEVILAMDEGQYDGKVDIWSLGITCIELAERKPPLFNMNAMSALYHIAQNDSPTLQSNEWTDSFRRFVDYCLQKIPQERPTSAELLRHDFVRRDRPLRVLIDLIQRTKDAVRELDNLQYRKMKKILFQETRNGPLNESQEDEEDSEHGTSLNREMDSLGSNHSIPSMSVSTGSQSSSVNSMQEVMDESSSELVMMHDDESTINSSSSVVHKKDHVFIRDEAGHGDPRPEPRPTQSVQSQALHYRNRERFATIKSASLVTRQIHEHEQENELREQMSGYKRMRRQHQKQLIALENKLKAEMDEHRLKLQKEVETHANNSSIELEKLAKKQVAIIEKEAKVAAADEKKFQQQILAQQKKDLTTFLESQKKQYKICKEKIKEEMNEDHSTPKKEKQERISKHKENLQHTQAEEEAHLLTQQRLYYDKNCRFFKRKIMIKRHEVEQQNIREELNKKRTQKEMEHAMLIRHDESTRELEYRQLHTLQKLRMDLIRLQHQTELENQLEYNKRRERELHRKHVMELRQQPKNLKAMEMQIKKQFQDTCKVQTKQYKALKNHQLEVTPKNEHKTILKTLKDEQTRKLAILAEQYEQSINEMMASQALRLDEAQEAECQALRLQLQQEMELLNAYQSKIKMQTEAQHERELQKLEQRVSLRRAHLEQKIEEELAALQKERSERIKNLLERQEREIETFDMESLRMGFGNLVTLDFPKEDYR
In outline: as §1

The mark [1] stands for this setting: read-out: % Enzyme Activity (relative to DMSO controls) Run 1.
[2] abbreviates: read-out: % Enzyme Activity (relative to DMSO controls) Run 2.

Like-named read-outs stand apart in the source and are kept apart here.

T1 sequence (Q9UPE1 whole entry): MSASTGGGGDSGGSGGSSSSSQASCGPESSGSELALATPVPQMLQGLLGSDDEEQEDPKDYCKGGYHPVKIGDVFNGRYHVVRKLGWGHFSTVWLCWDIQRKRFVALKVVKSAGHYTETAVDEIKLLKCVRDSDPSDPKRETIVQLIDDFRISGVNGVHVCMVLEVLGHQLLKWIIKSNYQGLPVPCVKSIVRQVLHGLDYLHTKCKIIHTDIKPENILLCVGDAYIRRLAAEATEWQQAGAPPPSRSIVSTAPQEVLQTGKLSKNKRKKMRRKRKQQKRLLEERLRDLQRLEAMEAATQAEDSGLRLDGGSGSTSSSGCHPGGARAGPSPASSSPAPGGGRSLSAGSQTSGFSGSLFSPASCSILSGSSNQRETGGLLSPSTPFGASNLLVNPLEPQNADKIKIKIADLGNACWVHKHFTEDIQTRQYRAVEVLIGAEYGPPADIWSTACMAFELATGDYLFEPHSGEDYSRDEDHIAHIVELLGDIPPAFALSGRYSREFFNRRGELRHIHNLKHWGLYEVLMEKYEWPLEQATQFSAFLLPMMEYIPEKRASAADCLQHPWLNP

Regarding `C=CC(=O)Nc1cccc(Nc2nc(Nc3ccc(OCCOC)c(F)c3)ncc2F)c1` [Compound 2], the inhibition at 3 µM was -6.62% at MSSK1/STK23, 97.4% against JAK3 and 7.74% against TAOK3/JIK. In addition, the remaining activity at 3 µM turned out to be 108% on MSSK1/STK23 (setting [1]); 105% on MSSK1/STK23 (setting [2]); 2.53% at JAK3 (setting [1]); 2.73% on JAK3 (setting [2]); 94.5% on TAOK3/JIK (setting [1]); 90% on TAOK3/JIK (setting [2]).

The record behind these values is patent US9492471B2, “Methods of treating a disease or disorder associated with Bruton'S Tyrosine Kinase” (Celgene Avilomics Research, Inc., priority 2013, dated 2016).
